Data set [1] in a line: Oscillatory shear rheology of PVAm hydrogels cross-linked with OBP. It is filed as physicochemical. The method, then:
To investigate the mechanical properties of the hydrogel and to confirm the formation of cross-linking points from a mechanical point of view, dynamic rheological measurements were performed. Hydrogel samples with a varying degree of cross-linking (DC=n(OBP)/n(Am) [mol %]) in the range of 1-5 mol % and a water content of 94 wt % were analyzed under oscillatory shear. […] All samples show an elastic response over the entire frequency range, with G′ distinctly exceeding G″ by two magnitudes. Additionally, a frequency independent behavior for G′ is observed.
Rheological properties of the hydrogels were analyzed via oscillatory shear experiments on the strain-controlled rotational rheometer Ares G2 (TA Instruments, Eschborn, Germany). Hydrogel samples with a varying degree of cross-linking (DC) between 1 and 5 mol % (DC=n(OBP)/n(Am) [mol %]) were prepared in a cylindrical PTFE mold with a diameter of ˜30 mm to obtain uniform disc-shaped specimens. The cross-linking agent (OBP) was first dissolved in 1 ml H2O and then mixed with 3 ml of the 6.6 wt % PVAm solution. The mold was sealed and the cross-linking reaction was allowed to proceed overnight.
The test geometry was a 30 mm diameter plate made from aluminum. The geometry was lowered until a constant axial force of 0.5 N was applied to the sample and the temperature was controlled to 25±0.1° C. by a Peltier element (Advanced Peltier System, TA Instruments). First, an oscillatory strain sweep was performed with a constant frequency of f=1 Hz by varying the strain from γ0=0.01-1000% to determine the linear viscoelastic (LVE) regime. The values at a strain of γ0=0.1% were chosen to be representative for the LVE regime. Subsequently, frequency sweeps were employed at a fixed strain of 0.1% while the frequency was varied from 0.03 to 100 Hz. To study the self-healing properties, the sample with DC=3 mol % was cut and subsequently cured in a sealed mold at 70° C. for 3 h.

The nature of data set [2]: Reversibility of cross-linking by means of pH-change. Type of data set: physicochemical. To be noted: gel of 3.9 g Example 2.1 at pH 7 crosslinked with 0.075 g OBP, after adding 2 ml hydrochloric acid (10 w %). The method, then:
3.9 g Example 2.1 at 7 pH stained with rhodamine B were crosslinked with 0.075 g OBP dissolved in 1 mL water at RT. The cross-linking reaction produces within a few seconds a solid gel. After adding 2 ml of hydrochloric acid (10 w %) it takes about 2 h till the gel is completely liquefied. When setting the pH back to neutral by adding caustic the gel is instantaneously formed again.

Data set [3] can be described thus: Water solubility of cross-linkers.

Structures are written as SMILES. ≈ marks a conversion by molar mass, not a printed value. Where a name gives a salt, the structure may show the parent alone.

As for `O=C1CCN(C(=O)C(=O)N2CCC(=O)CC2)CC1` (as salt: hydrochloride) (hydrate or solvate) [Example 1.1, 1,2-bis(4-oxopiperidin-1-yl)ethane-1,2-dione], the melting point (usually the temperature of the solid-liquid transition) came out at 174 °C.
For `O=C1CCN(C(=O)C(=O)N2CCC(=O)CC2)CC1` [Example 1.1, 1,2-bis(4-oxopiperidin-1-yl)ethane-1,2-dione], the mechanical strength entry in data set [1] (PVAm hydrogels cross-linked with OBP, at higher DC values, water content 94 wt %) is “up to 15 kPa”. The storage modulus in data set [1] (PVAm/OBP hydrogel DC=3 mol %, after first self-healing cycle) was approximately 6 kPa; in data set [1] (PVAm/OBP hydrogel DC=3 mol %, before first self-healing cycle) it was “approximately 7 kPa”. Besides, the “decrease of G′” value in data set [1] (PVAm/OBP hydrogel DC=3 mol %, cut and measured directly without curing) was determined as 42%. For the same compound, the “decrease of the storage modulus” value in data set [1] (PVAm/OBP hydrogel DC=3 mol %, first self-healing cycle, cut and cured at 70° C. for 3 h) amounted to 14%. In addition, the “time till the gel is completely liquefied” value in data set [2] is recorded as “about 2 h”. For the same compound, in data set [3], the concentration in solution (solubility) came to 60 mg/mL (≈ 238 mM).
In the case of `O=C1CCN(C(=O)c2ccc(C(=O)N3CCC(=O)CC3)cc2)CC1` [Example 1.2, 1,1′-Terephthaloylbis(piperidin-4-one)], in data set [3], the solubility – broadly, how much of the substance goes into solution per volume – stood at 0.5 mg/mL (≈ 1.52 mM).
